Experimental findings from US20240189307A1, “METHODS OF STABILIZING THE NEURONAL PROTEOME AGAINST COLLAPSE AND PROTECTING VASCULAR CELLS” (ALBERT EINSTEIN COLLEGE OF MEDICINE, priority 2021, published 2024) are described below.

Series [1] in a line: Pharmacokinetic analysis in mice brain after p.o. and i.v. administration. Format: in vivo. Particulars: p.o. 10 mg/Kg and i.v. 1 mg/kg.
Series [2] in a line: Blood cell count and histopathology of peripheral organs (liver, lung, kidney) after daily oral administration. The following applies: after 3 months of daily treatment. It is filed as in vivo.
Series [3] deals with NIH3T3 cells stably expressing the KFERQ-PS-Dendra reporter. Briefly: CMA activity in cells with KFERQ-PS-Dendra reporter (fluorescent puncta per cell). Format: cell-based, mouse. The following applies: increasing concentrations; 12 h, 16 h or 24 h treatment. On the procedure:
FIG. 10. Characterization of the brain permeable chemical activator of CMA and effect in a mouse model of Frontotemporal dementia-related proteotoxicity. (A) Chemical structure of AR7 and CA77.1. (B) Quantification of the effect of adding increasing concentrations of AR7 and CA77.1 to NIH3T3 cells stably expressing the KFERQ-PS-Dendra reporter. CMA activity was quantified after 16 h treatment as the average of fluorescent puncta per cell. (n>800 cells per condition). (C) Autophagic flux in NIH3T3 cells incubated at 37° C. for 16 h with 20 µM AR7 or CA77.1 or without additions (none). Where indicated lysosomal protease inhibitors (PI) were added to the cells 6 h before lysis. Left: representative immunoblot. […] Right: quantification of LC3-II flux as the difference in LC3-II levels in cells treated with PI relative to untreated. […] (D) Quantification of the effect of adding increasing concentrations of AR7 and CA77.1 to NIH3T3 cells stably expressing the KFERQ-PS-Dendra reporter. CMA activity was quantified after 12 h or 24 h treatment as the average of fluorescent puncta per cell. […] Representative immunoblot of 4-5 mice per genotype and treatment (L) and densitometric quantification of AT8 as monomer [Kruskal-Wallis statistic=20.48, p<0.0001] […] (O, P) Quantification of the number of Iba1-positive microglial cells per mm^2 in the hippocampus [Kruskal-Wallis statistic=10.55, p=0.0051] […]

In the case of `CC(=O)Nc1ccc(-c2cnc3cc(Cl)ccc3n2)cc1` [CA77.1], the “brain penetrance and pharmacokinetics” value in series [1] is reported as “brain penetrance with favorable pharmacokinetics”. For the same molecule, the “blood or major organs toxicity” value in series [2] is given as “absence of blood or major organs toxicity”. Further, in series [3], the “CMA activity in vitro” value was “activates CMA in vitro in dose- and time-dependent manner”.
